According to US4642355A, “Proline derivatives” (Otsuka Pharmaceutical Factory, Inc., priority 1984, dated 1987):
Structures can show the parent of a compound that is named as a salt.

Tested on: angiotensin-converting enzyme (ACE)
Test: ACE inhibitory effect in normotensive rats (inhibition of pressor response to angiotensin I)
Assay type: in vivo
Settings: 1 mg/kg directly to the stomach, male Wistar rats, urethane anesthesia, AI/AII ratio
Method: ACE Inhibitory effect in normotensive rats
Male Wistar rats weighing 200 to 400 g were anesthetized by the intraperitoneal injection of urethane (1.25 g/kg) and held in the supine position. The degree of inhibition of pressor response to angiotensin (A) I was determined using these rats. The blood pressure was measured with a femoral artery cannula connected to a transducer (product of Nihon Kohden Kabushiki Kaisha, Japan, Model MPU-0.5-290-0-III) and recorded in terms of a mean blood pressure value through a carrier amplifier (product of Nihon Kohden Kabushiki Kaisha, Japan, Model RP-5) on a multipurpose polygraph (product of Nihon Kohden Kabushiki Kaisha, Japan, Model RM-85). The rats were set in an experimental device and left therein for 1 hour to stabilize the hemodynamics. Then experiments were commenced. Since the magnitude of the pressor response to AI varies with time, the ratio of the responses to AI and AII (AI/AII ratio) was used to determine the magnitude of the pressor response to AI which ratio remained more constant. Through the cannulated femoral vein, AI (300 ng/kg) was administered first and AII (300 ng/kg) was given in 5 minutes to measure an AI/AII ratio. At 30 minutes after the first administration of AI, AI (300 ng/kg) was similarly administered and AII (300 ng/kg) was given in 5 minutes, followed by measuring an AI/AII ratio. This procedure was repeated until a constant value of AI/AII ratio was obtained. (The mean value of AI/AII ratios each resulting from the repeated procedure is represented as "C" in an equation to be shown later). At 10 minutes after the final administration of AII, an aqueous solution containing 1 mg/kg of each test compound was given directly to the stomach through a vinyl tube. At 10 minutes after administration of the test compound, AI (300 ng/kg) was given and at 5 minutes later, AII (300 ng/kg) was administered, followed by measurement of the AI/AII ratio (which was represented as "E" in the following equation). An ACE percent inhibition was calculated according to the equation indicated below. [formula]
Subsequently at each time of 60, 120 and 240 minutes after the administration of the test compound, AI (300 ng/kg) was given in the same manner as above and AII (300 ng/kg) was administered in 5 minutes, whereupon an ACE percent inhibition was calculated in the same way.
The results are shown below in Table 26 in which the test compounds listed are those prepared in the Examples indicated therein.

[1] = 15 min. after administration, 1 mg/kg
[2] = 60 min. after administration, 1 mg/kg
[3] = 120 min. after administration, 1 mg/kg
[4] = 240 min. after administration, 1 mg/kg

SMILES | ACE Percent Inhibition, mean ± SD [1] | ACE Percent Inhibition, mean ± SD (15 min. after administration, listed as Ex. No. 67*^2, 1 mg/kg) | ACE Percent Inhibition, mean ± SD [2] | ACE Percent Inhibition, mean ± SD (60 min. after administration, listed as Ex. No. 67*^2, 1 mg/kg) | ACE Percent Inhibition, mean ± SD [3] | ACE Percent Inhibition, mean ± SD (120 min. after administration, listed as Ex. No. 67*^2, 1 mg/kg) | ACE Percent Inhibition, mean ± SD [4] | ACE Percent Inhibition, mean ± SD (240 min. after administration, listed as Ex. No. 67*^2, 1 mg/kg) | ACE Percent Inhibition, mean ± SD (15 min. after administration) | ACE Percent Inhibition, mean ± SD (60 min. after administration) | ACE Percent Inhibition, mean ± SD (120 min. after administration) | ACE Percent Inhibition, mean ± SD (240 min. after administration)
CCCCCC(SC[C@H](NC(C)C(=O)N1CCC[C@H]1C(=O)O)C(=O)OCC)C(=O)OCC (stereo partly drawn) [Ex. No. 67*^1] | 23 ± 35% | 46 ± 29% | 55 ± 11% | 76 ± 10% | 59 ± 4% | 61 ± 14% | 63 ± 9% | 65 ± 7% |  |  |  | 
CCCCCCC(SC[C@H](NC(C)C(=O)N1CCC[C@H]1C(=O)O)C(=O)OCC)C(=O)OCC (stereo partly drawn) [Ex. No. 71*^4] | 47 ± 24% |  | 69 ± 6% |  | 70 ± 10% |  | 60 ± 10% |  |  |  |  | 
CCCCCCC(SC[C@H](NC(C)C(=O)N1CCC[C@H]1C(=O)O)C(=O)OCC)C(=O)OCC (stereo partly drawn) [Ex. No. 71*^ 3] | 39 ± 34% |  | 65 ± 14% |  | 60 ± 2% |  | 67 ± 3% |  |  |  |  | 
CCCCCCSC[C@H](NC(C)C(=O)N1CCC[C@H]1C(=O)O)C(=O)OCC (stereo partly drawn) [Example 5, N-[(R)-1-ethoxycarbonyl-2-hexylthioethyl]-alanyl-(S)-proline(β-isomer) and L-arginine salt thereof] |  |  |  |  |  |  |  |  | 28 ± 14% | 54 ± 3% | 54 ± 17% | 55 ± 7%
CCCCCCCSC[C@H](NC(C)C(=O)N1CCC[C@H]1C(=O)O)C(=O)OCC (stereo partly drawn) [Example 18, N-[(R)-1-ethoxycarbonyl-2-heptylthioethyl]-alanyl-(S)-proline (β-isomer) and maleate] |  |  |  |  |  |  |  |  | 77 ± 8% | 75 ± 23% | 84 ± 10% | 63 ± 6%
CCOC(=O)[C@H](CSCC1CCCCC1)NC(C)C(=O)N1CCC[C@H]1C(=O)O (stereo partly drawn) [Example 21] |  |  |  |  |  |  |  |  | 22 ± 25% | 38 ± 29% | 58 ± 15% | 56 ± 14%
CCOC(=O)[C@H](CSCC=C(C)C)NC(C)C(=O)N1CCC[C@H]1C(=O)O (stereo partly drawn) [Example 32] |  |  |  |  |  |  |  |  | 15 ± 9% | 31 ± 7% | 33 ± 9% | 29 ± 8%
CCCCCCCSC[C@H](NC(C)C(=O)N1CCC[C@H]1C(=O)OC)C(=O)OCC (stereo partly drawn) [Example 39] |  |  |  |  |  |  |  |  | 39 ± 59% | 79 ± 30% | 76 ± 5% | 88 ± 3%
CCCCCCCSC[C@H](NC(C)C(=O)N1CCC[C@H]1C(=O)OCC)C(=O)OCC (stereo partly drawn) [Example 40] |  |  |  |  |  |  |  |  | 37 ± 19% | 55 ± 18% | 57 ± 13% | 70 ± 9%
CCCCCCCSC[C@H](NC(C)C(=O)N1CCC[C@H]1C(=O)OCc1ccccc1)C(=O)OCC (stereo partly drawn) [Example 42] |  |  |  |  |  |  |  |  | 27 ± 1% | 17 ± 18% | 57 ± 7% | 66 ± 7%
CCCCCCCCSC[C@H](NC(C)C(=O)N1CCC[C@H]1C(=O)O)C(=O)OCC (stereo partly drawn) [Example 81, N-[(R)-1-ethoxycarbonyl-2-octylthio-ethyl]-alanyl-(S)-proline (β-isomer).L-arginine salt] |  |  |  |  |  |  |  |  | 14 ± 17% | 43 ± 18% | 47 ± 11% | 55 ± 6%
